Patent US8901313B2, “6,5-heterocyclic propargylic alcohol compounds and uses therefor” (Genentech, Inc., priority 2011, dated 2014)

target: T1, nuclear factor-kappa B (NF-kB)-inducing kinase (NIK) (Homo sapiens, UniProt Q99558); experiment: NIK Enzyme Inhibition Assay (Transcreener ADP assay); type: biochemical; conditions: purified NIK 0.2-1 nM, 10 uM ATP, fluorescence polarization, Morrison's quadratic equation; read-out: inhibitory value (Ki) for NIK
T1 construct: made in house; host or cells: baculovirus-infected insect cells
T1 sequence (Q99558 whole entry): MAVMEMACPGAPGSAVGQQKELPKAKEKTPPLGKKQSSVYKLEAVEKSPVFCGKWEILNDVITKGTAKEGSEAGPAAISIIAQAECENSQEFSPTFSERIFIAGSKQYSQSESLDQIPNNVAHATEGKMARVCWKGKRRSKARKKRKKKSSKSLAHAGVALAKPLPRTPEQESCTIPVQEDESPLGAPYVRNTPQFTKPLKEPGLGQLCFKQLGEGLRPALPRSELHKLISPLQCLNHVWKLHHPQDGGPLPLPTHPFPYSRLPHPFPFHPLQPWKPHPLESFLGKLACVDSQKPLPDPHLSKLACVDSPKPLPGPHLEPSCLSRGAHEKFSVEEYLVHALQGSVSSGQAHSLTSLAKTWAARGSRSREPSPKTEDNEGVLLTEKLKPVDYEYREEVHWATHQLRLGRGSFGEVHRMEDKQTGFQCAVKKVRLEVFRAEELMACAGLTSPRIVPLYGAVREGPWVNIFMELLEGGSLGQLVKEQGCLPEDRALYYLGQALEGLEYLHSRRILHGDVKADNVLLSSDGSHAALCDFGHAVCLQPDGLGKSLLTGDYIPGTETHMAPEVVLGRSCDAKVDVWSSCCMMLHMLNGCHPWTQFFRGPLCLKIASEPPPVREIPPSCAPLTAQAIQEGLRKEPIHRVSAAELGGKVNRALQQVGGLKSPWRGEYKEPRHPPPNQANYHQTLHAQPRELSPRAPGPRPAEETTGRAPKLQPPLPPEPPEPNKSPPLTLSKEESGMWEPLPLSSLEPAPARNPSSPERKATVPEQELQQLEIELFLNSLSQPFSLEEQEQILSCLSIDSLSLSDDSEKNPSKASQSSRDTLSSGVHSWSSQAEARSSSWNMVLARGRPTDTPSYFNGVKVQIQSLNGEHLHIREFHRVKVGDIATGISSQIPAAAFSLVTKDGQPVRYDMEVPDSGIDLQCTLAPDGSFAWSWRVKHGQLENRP

SMILES	Ki [nM]
CN(C)C(=O)c1nn(-c2ccnc(N)n2)c2cc(C#C[C@@](C)(O)c3nccs3)ccc12 [Example T1-46, (R)-1-(2-aminopyrimidin-4-yl)-6-(3-hydroxy-3-(thiazol-2-yl)but-1-ynyl)-N,N-dimethyl-1H-indazole-3-carboxamide]	0.16
CCOc1nc2ccc(C#CC(C)(O)c3cc(C)on3)cc2n1-c1ccnc(N)n1 (stereo not shown) [Example T1-70, 4-(1-(2-aminopyrimidin-4-yl)-2-ethoxy-1H-benzo[d]imidazol-6-yl)-2-(5-methyl-isoxazol-3-yl)but-3-yn-2-ol]	0.5
Cc1cc([C@](C)(O)C#Cc2ccc3[nH]c(=O)n(-c4ccnc(N)n4)c3c2)no1 [Example T1.1-1, 3-(2-aminopyrimidin-4-yl)-[(3R)-3-hydroxy-3-(5-methyl-isoxazol-3-yl)but-1-ynyl]-1H-benzimidazol-2-one]	0.1
Cc1cc(C(C)(O)C#Cc2ccc3c(C(O)C(C)C)nn(-c4ccnc(N)n4)c3c2)no1 (stereo not shown) [Example T1.1-3, 4-[1-(2-aminopyrimidin-4-yl)-3-(1-hydroxy-2-methyl-pro-pyl)indazol-6-yl]-2-(5-methyl-isoxazol-3-yl)but-3-yn-2-ol]	0.2
Cc1cc([C@](C)(O)C#Cc2ccc3c(CO)nn(-c4ccnc(N)n4)c3c2)no1 [Example T1.1-4, (2R)-4-[1-(2-aminopyrimidin-4-yl)-3-(hydroxymethyl)indazol-6-yl]-2-(5-methyl-isoxazol-3-yl)but-3-yn-2-ol]	0.22
Cc1cc(C(C)(O)C#Cc2ccc3c(C(C)(O)C4CC4)nn(-c4ccnc(N)n4)c3c2)no1 (stereo not shown) [Example T1.1-6, 4-[1-(2-aminopyrimidin-4-yl)-3-(1-cyclopropyl-1-hydroxy-ethyl)indazol-6-yl]-2-(5-methylisoxazol-3-yl)but-3-yn-2-ol]	0.32
Cc1cc([C@](C)(O)C#Cc2ccc3c(C(C)(C)O)nn(-c4ccnc(N)n4)c3c2)no1 [Example T1.1-9, (2R)-4-[1-(2-aminopyrimidin-4-yl)-3-(1-hydroxy-1-methyl-ethyl)indazol-6-yl]-2-(5-methyl-isoxazol-3-yl)but-3-yn-2-ol]	0.5
Cc1cc([C@](C)(O)C#Cc2ccc3c(c2)n(-c2ccnc(N)n2)c(=O)n3C)no1 [Example T1.1-10, 3-(2-aminopyrimidin-4-yl)-5-[(3R)-3-hydroxy-3-(5-methylisoxazol-3-yl)but-1-ynyl]-1-methyl-benzimidazol-2-one]	0.5
Cc1cc(C(C)(O)C#Cc2ccc3nc(OCC(O)CO)n(-c4ccnc(N)n4)c3c2)no1 (stereo not shown) [Example T1.1-13, 3-[1-(2-aminopyrimidin-4-yl)-6-[3-hydroxy-3-(5-methylisoxazol-3-yl)but-1-ynyl]benzimidazol-2-yl]oxypropane-1,2-diol]	0.6
Cc1cc([C@](C)(O)C#Cc2ccc3c(C(=O)N4CCOCC4)nn(-c4ccnc(N)n4)c3c2)no1 [Example T1.1-14, [1-(2-aminopyrimidin-4-yl)-6-[(3R)-3-hydroxy-3-(5-methylisoxazol-3-yl)but-1-ynyl]indazol-3-yl]-morpholino-methanone]	0.8
CNC(=O)c1nn(-c2ccnc(N)n2)c2cc(C#C[C@@](C)(O)c3cc(C)on3)ccc12 [Example T1.1-15, 1-(2-aminopyrimidin-4-yl)-6-[(3R)-3-hydroxy-3-(5-methylisoxazol-3-yl)but-1-ynyl]-N-methyl-indazole-3-carboxamide]	1
CCOc1nc2ccc(C#CC(C)(O)c3cc(CO)on3)cc2n1-c1ccnc(N)n1 (stereo not shown) [Example T1.1-17, 4-[3-(2-aminopyrimidin-4-yl)-2-ethoxy-benzimidazol-5-yl]-2-[5-(hydroxymethyl)isoxdazol-3-yl]but-3-yn-2-ol]	1
Cc1nn(-c2ccnc(N)n2)c2cc(C#CC(C)(O)c3cc(CF)on3)ccc12 (stereo not shown) [Example T1.1-19, 4-[1-(2-aminopyrimidin-4-yl)-3-methyl-indazol-6-yl]-2-[5-(fluoromethyl)isoxazol-3-yl]but-3-yn-2-ol]	1
Cc1cc([C@](C)(O)C#Cc2ccc3c(C(N)=O)nn(-c4ccnc(N)n4)c3c2)no1 [Example T1.1-20, 1-(2-aminopyrimidin-4-yl)-6-[(3R)-3-hydroxy-3-(5-methyl-isoxazol-3-yl)but-1-ynyl] indazole-3-carboxamide]	1
CC(O)(C#Cc1ccc2[nH]c(=O)n(-c3ccnc(N)n3)c2c1)c1cc(CO)on1 (stereo not shown) [Example T1.1-21, 3-(2-aminopyrimidin-4-yl)-5-[3-hydroxy-3-[5-(hydroxymethyl)isoxazol-3-yl]but-1-ynyl]-1H-benzimidazol-2-one]	1
Cc1nc([C@](C)(O)C#Cc2ccc3c(C(=O)N4CCC(F)CC4)nn(-c4ccnc(N)n4)c3c2)no1 [Example T1.1-24, [1-(2-aminopyrimidin-4-yl)-6-[(3R)-3-hydroxy-3-(5-methyl-1,2,4-oxadiazol-3-yl)but-1-ynyl]indazol-3-yl]-(4-fluoro-1-piperidyl)methanone]	1
Cc1cc([C@](C)(O)C#Cc2ccc3nc(OC4COC4)n(-c4ccnc(N)n4)c3c2)no1 [Example T1.1-25, (2R)-4-[3-(2-aminopyrimidin-4-yl)-2-(oxetan-3-yloxy)benzimidazol-5-yl]-2-(5-methylisoxazol-3-yl) but-3-yn-2-ol]	1

Now from value to compound:

Ki [nM]	SMILES
411	N#Cc1ccc2cnn(-c3nc(N)ncc3[N+](=O)[O-])c2c1 [Example T1-8, 1-(2-amino-5-nitropyrimidin-4-yl)-1H-indazole-6-carbonitrile]
2900	CC(C)(O)C#Cc1ccc2nc(C3CC3)n(-c3ccnc(N)n3)c2c1 [Example T1-17, 4-(1-(2-aminopyrimidin-4-yl)-2-cyclopropyl-1H-benzo[d]imidazol-6-yl)-2-methylbut-3-yn-2-ol]
2100	COc1ncccc1Nc1ncnc(-n2ncc3ccc(C#CC(C)(C)O)cc32)n1 [Example T1-24, 4-(1-(4-(2-methoxypyridin-3-ylamino)-1,3,5-triazin-2-yl)-1H-indazol-6-yl)-2-methylbut-3-yn-2-ol]
60	CN(C)C(=O)c1nn(-c2ccnc(N)n2)c2cc(C#CC(C)(C)O)ccc12 [Example T1-30, 1-(2-aminopyrimidin-4-yl)-6-(3-hydroxy-3-methylbut-1-ynyl)-N,N-dimethyl-1H-indazole-3-carboxamide]
4600	COc1ncccc1Nc1cc(-n2ncc3ccc(C#CC(C)(C)O)cc32)ncn1 [Example T1-31, 4-(1-(6-(2-methoxypyridin-3-ylamino)pyrimidin-4-yl)-1H-indazol-6-yl)-2-methylbut-3-yn-2-ol]
0.11	C[C@@](O)(C#Cc1ccc2[nH]c(=O)n(-c3ccnc(N)n3)c2c1)c1nccs1 [Example T1-47, (R)-1-(2-aminopyrimidin-4-yl)-6-(3-hydroxy-3-(thiazol-2-yl)but-1-ynyl)-1H-benzo[d] imidazol-2(3H)-one]
847	Cc1nn(-c2ccnc(N)n2)c2cc(C#C[C@](C)(O)c3nccs3)ccc12 [Example T1-49, (S)-4-(1-(2-aminopyrimidin-4-yl)-3-methyl-1H-indazol-6-yl)-2-(thiazol-2-yl)but-3-yn-2-ol]
575	Cc1csc(C(C)(O)C#Cc2ccc3c(C)nn(-c4ccnc(N)n4)c3c2)n1 (stereo not shown) [Example T1-51, 4-(1-(2-aminopyrimidin-4-yl)-3-methyl-1H-indazol-6-yl)-2-(4-methylthiazol-2-yl)but-3-yn-2-ol]
≥ 5000	Cc1nn(-c2ccnc(N)n2)c2cc(C#CC3(O)CCN(C)CC3)ccc12 [Example T1-69, 4-((1-(2-aminopyrimidin-4-yl)-3-methyl-1H-indazol-6-yl)ethynyl)-1-methylpiperidin-4-ol]
0.2	Cc1nc2ccc(C#C[C@@](C)(O)c3nccs3)cc2n1-c1ncnc(N)n1 [Example T1.1-2, (2R)-4-[3-(4-amino-1,3,5-triazin-2-yl)-2-methyl-benzimidazol-5-yl]-2-thiazol-2-yl-but-3-yn-2-ol]
0.32	Cc1cc([C@](C)(O)C#Cc2ccc3nc(C)n(-c4ncnc(N)n4)c3c2)no1 [Example T1.1-5, (2R)-4-[3-(4-amino-1,3,5-triazin-2-yl)-2-methyl-benzimidazol-5-yl]-2-(5-methylisoxazol-3-yl)but-3-yn-2-ol]
0.4	Cc1nc([C@](C)(O)C#Cc2ccc3c(C(C)(C)O)nn(-c4ccnc(N)n4)c3c2)no1 [Example T1.1-7, (2R)-4-[1-(2-aminopyrimidin-4-yl)-3-(1-hydroxy-1-methyl-ethyl)indazol-6-yl]-2-(5-methyl-1,2,4-oxadiazol-3-yl) but-3-yn-2-ol]
0.5	Cc1nc([C@](C)(O)C#Cc2ccc3c(CF)nn(-c4ccnc(N)n4)c3c2)no1 [Example T1.1-8, (2R)-4-[1-(2-aminopyrimidin-4-yl)-3-(fluoromethyl)indazol-6-yl]-2-(5-methyl-1,2,4-oxadiazol-3-yl)but-3-yn-2-ol]
0.6	Cc1nn(-c2ccnc(N)n2)c2cc(C#CC(C)(O)c3c[nH]cn3)ccc12 (stereo not shown) [Example T1.1-12, 4-[1-(2-aminopyrimidin-4-yl)-3-methyl-indazol-6-yl]-2-(1H-imidazol-4-yl)but-3-yn-2-ol]
1	Cc1nn(-c2ccnc(N)n2)c2cc(C#CC3(O)CCN(C)C3=O)ccc12 (stereo not shown) [Example T1.1-16, 3-[2-[1-(2-aminopyrimidin-4-yl)-3-methyl-indazol-6-yl]ethynyl]-3-hydroxy-1-methyl-pyrrolidin-2-one]
1	Cn1c(=O)n(-c2ccnc(N)n2)c2cc(C#CC3(O)CCn4ccnc43)ccc21 (stereo not shown) [Example T1.1-22, 3-(2-aminopyrimidin-4-yl)-5-[2-(7-hydroxy-5,6-dihydropyrrolo[1,2-a]imidazol-7-yl)ethynyl]-1-methyl-benzimidazol-2-one]
1	Cc1nc([C@](C)(O)C#Cc2ccc3c(C(=O)N4CC(O)C4)nn(-c4nc(N)ncc4Cl)c3c2)no1 [Example T1.1-23, [1-(2-amino-5-chloro-pyrimidin-4-yl)-6-[(3R)-3-hydroxy-3-(5-methyl-1,2,4-oxadiazol-3-yl)but-1-ynyl]indazol-3-yl]-(3-hydroxy-azetidin-1-yl)methanone]
